Measurements as given in patent US20240409944A1, “COMPOSITIONS AND METHODS FOR THE INHIBITION OF TUMOR METASTASIS AND HORIZONTAL GENE TRANSFER” (The Regents of the University of Colorado, a body corporate, priority 2021, published 2024).
Entries after “also recorded” stand apart in the source; their conditions may differ. Like-named read-outs stand apart in the source and are kept apart here. *1 amine or outer side, *2 acyl side, *3 side chain or, on linkers, in order; H or OH if unused. Where a SMILES comes first, the peptide text is derived from it. Bridges are numbered along the chain shown (N, C = ends). Roman numbers before positions name the chains, in order. [ ]: non-standard residue; d: D form. Actinocin(9to1) = Cc1c2oc3c(C)ccc(C(=O)[*:1])c3nc-2c(C(=O)[*:2])c(N)c1=O; NMeV = CN[C@H](C(=O)O)C(C)C; Sar = CNCC(=O)O

How the values were obtained:
[1] = system: HUVEC and MDA-MB-231-H2B-mCherry co-culture; test: Live cell imaging of CIC structures, HUVEC co-culture; assay type: cell-based, Human; settings: preliminary
[2] = system: RPE1-Venus-Parkin and MDA-MB-231-H2B-mCherry co-culture; test: Intercellular gene transfer in co-culture, flow cytometric analysis; assay type: cell-based
[3] = system: MDASC43 & RPE1-VEP co-culture; test: 48-hour live cell imaging of CIC structures, MDASC43 co-culture; assay type: cell-based; settings: 10 μM Doxorubicin, 100 μM Hygromycin B; for effect on number/frequency of CIC structures / average duration of CIC structures / time at which CIC structures were concentrated: 20 μM Actinomycin D; for average duration of CIC structures / time at which CIC structures were concentrated: alone or combined
F-actin = F-actin stability (Alexa Fluor 594 Phalloidin); assay type: cell-based; settings: co-cultured RPE1-VEP and MDA-MB-231-H2BmCherry
Experimental: Immunofluorescence microscopy was performed as described previously.

[4] = system: MDA-MB-231-H2B-mCherry and RPE1-Venus-Parkin co-culture; test: Cell entrapment (cell-in-cell structure formation), live-cell imaging; settings: inhibitor treatment
[5] = compound present in the co-culture, Hygromycin B 100 μM

| SMILES | effect on number/frequency of CIC structures [3] | average duration of CIC structures [3] [h] | time at which CIC structures were concentrated [3] [h] | effect on gene transfer [2, 5] | further results |
| --- | --- | --- | --- | --- | --- |
| Cc1c2oc3c(C)ccc(C(=O)N[C@@H]4C(=O)N[C@H](C(C)C)C(=O)N5CCC[C@H]5C(=O)N(C)CC(=O)N(C)[C@@H](C(C)C)C(=O)O[C@@H]4C)c3nc-2c(C(=O)N[C@@H]2C(=O)N[C@H](C(C)C)C(=O)N3CCC[C@H]3C(=O)N(C)CC(=O)N(C)[C@@H](C(C)C)C(=O)O[C@@H]2C)c(N)c1=O [Actinomycin D] (I: T[dV]P[Sar][NMeV] / II: T[dV]P[Sar][NMeV]; ester I:1-I:C, II:1-II:C; linker I:N-II:N via Actinocin(9to1)) | significantly increased | 6.04 | 9.2 to 15.3 |  | average CIC structure duration ([1]; 100 μM Hygromycin B, 20 μM Actinomycin D, or combination, 1 focus field): 2.1 h; time at which CIC structures were concentrated ([1]; 100 μM Hygromycin B, 20 μM Actinomycin D, or combination): 2.9 to 5.1 h; effect on CIC structures (induction, frequency) [1]: induced; effect on gene transfer [2]: prevents; gene transfer percentage [2]: 1.5% |
| COc1cccc2c1C(=O)c1c(O)c3c(c(O)c1C2=O)C[C@@](O)(C(=O)CO)C[C@@H]3O[C@H]1C[C@H](N)[C@H](O)[C@H](C)O1 [Doxorubicin] | most CIC structure formation; also recorded: significantly increased | 11.5 | 13.6 to 25.1 | inhibiting | effect on CIC structure duration [3]: significantly higher; also recorded: significantly increased |
| C/C1=C/C(=O)O[C@@H]2C[C@@H](CC[C@H](C)/C=C\CC1)O[C@@](O)([C@@H]1CSC(=O)N1)C2 [Latrunculin B] |  |  |  | significantly decreased | F-actin levels (F-actin): significantly decreased; concentration that resulted in the lowest percentage of gene transfer to RPE cells [2]: 3 µM |
| COc1ccc(C2CC(c3ccccc3)=NN2c2ccc(S(N)(=O)=O)cc2)cc1 (centres unmarked) [ML141] |  |  |  | decreased; also recorded: significant effect |  |
| Cc1cn([C@H]2C=C[C@@H](CO)O2)c(=O)[nH]c1=O [Stavudine] |  |  |  |  | IC50 ([2]; later used as positive control of the screen, read-out: IC50 as potential tangocytosis inhibitor): 1830 nM |
| C[C@@H](N)[C@H]1CC[C@H](C(=O)Nc2ccncc2)CC1 [Y27632] |  |  |  | effect of ROCKs perturbation by RNA depletion was phenocopied | effect on cell entrapment (cell-in-cell structure formation) [4]: effect of ROCKs perturbation by RNA depletion was phenocopied |
